According to patent US6342511B1, “Phencyclidine derivatives, preparation method and pharmaceutical compositions containing same” (Societe de Conseils de Recherches et d'Applications …, priority 1977, dated 2002):
Where two headings read alike, the source gives them in different places.

Legend:
Assay type in all cases: binding
PCP3 sites = experiment: [3H]TCP displacement, cerebellum membranes, 2-site model, PCP3; conditions: [3H]TCP 2.5 nM, rat cerebellum
Method: (§1) The affinity of the compounds for their potential bond site, can be evaluated by quantifying their ability to displace a specific tritiated label of a given site. The bond experiences are carried out by competition between the molecule to be tested and the appropriate radioligand on a membrane preparation rich in sites to be studied. The concentration of the derivative tested which inhibits 50% of the bond of the radioligand to the receptor is called IC50.
(§2) For the experimental conditions and membrane preparation techniques used, reference can be made to the literature (Brain Res., 378, 133-141 (1986); Eur. J. Pharm., 81, 531-542 (1982)).
(§3) For low affinity sites, the monosite treatment used led to incoherent results. The experimental data have therefore been reprocessed using non-linear regression (Marquardt-Levenberg algorithm) with Sigma Plot software (Jandel) according to a model with two noted sites of interaction PCP2 and PCP3. This processing proves to be more suitable than a monosite treatment (Student test: p<0.05) over a set of 3 to 4 experiments for each compound tested. Over all the experiments, the two site populations are found in a relative proportion to 68.0% (±1.5) for the PCP2 sites and 31.2% (±1.5) for the PCP3 sites.
(§4) For the PCP2 and PCP3 sites, the preparation originates from rat cerebella. Not having a specific label, only [^3H]TCP can be used. A more significant concentration of tritiated ligand (2.5 nM versus 1 nM in the cortex) is used to ensure that all the PCP2 and PCP3 sites are occupied.

PCP2 sites = experiment: [3H]TCP displacement, cerebellum membranes, 2-site model, PCP2; conditions: [3H]TCP 2.5 nM, rat cerebellum
Method: as §1, §2, §3, §4

PCP1 sites = target: T1, PCP1 sites (Rattus norvegicus, UniProt P35439); experiment: [3H]TCP displacement, cortex membranes, 1-site model; conditions: for cortex 1 site nH: Hill number of the cortex displacement curve
T1 construct: membrane preparations originating from anterior cerebrum homogenates of rats; from tissue; host or cells: rat anterior cerebrum (forebrain/cortex) membranes
Method: as §1, with “studied.” for “studied. The concentration of the derivative tested which inhibits 50% of the bond of the radioligand to the receptor is called IC50.”
For the PCP1 sites, the tritiated label used is [^3H]TCP and the tests are carried out on membrane preparations originating from anterior cerebrum homogenates of rats.

PCP receptors = target: T2, PCP receptors (Rattus norvegicus, UniProt P35439); experiment: Percentage inhibition on PCP receptors ([3H]TCP, cerebral cortex membranes); conditions: compound 10 μM
T2 construct: membrane preparations originating from cerebral cortex of a rat; from tissue; host or cells: rat cerebral cortex membranes
Method: Percentage inhibition on PCP receptors:
The tritiated label used is [^3H]TCP and the tests are carried out on membrane preparations originating from cerebral cortex of a rat (Brain Res., 378, 133-141 (1986).

[1] = [3H]TCP 1 nM, rat cortex (anterior cerebrum) membranes, read-out: cortex 1 site IC50
[2] = cortex 1 site IC50, [3H]TCP 1 nM, rat cortex membranes, bound in μM
[3] = cortex 1 site IC50, [3H]TCP 1 nM, rat cortex (anterior cerebrum) membranes

With `CC1CCCN(C2(c3cccs3)CCSCC2)C1` (racemic) [Ex 2, (±)-N-[4-(2-thienyl)-tetrahydro-4H-thiopyran-4-yl]-3-methyl-piperidine] the IC50 (PCP3 sites; two-site non-linear regression) was 2.85 µM, the IC50 (PCP2 sites; two-site non-linear regression) was 0.265 µM and the “cortex 1 site nH” value (PCP1 sites) was 1.14. The IC50 (PCP1 sites; [1]) was 0.132 µM.
`CC1CCCN(C2(c3cc4ccccc4s3)CCSCC2)C1` (racemic) [Ex 5, (±)-N-[4-(2-benzothiophenyl)-tetrahydro-4H-thiopyran-4-yl]-3-methyl-piperidine] showed an IC50 (PCP3 sites; two-site non-linear regression) of 0.581 µM, an IC50 (PCP2 sites; bound in μM) greater than 100 µM and an IC50 (PCP1 sites; [2]) greater than 100 µM.
`CC1CCCN(C2(c3cccs3)CCCCC2)C1` (racemic) [Ex 22 (±), N-[1-(2-thienyl)-cyclohexan-1-yl]-3-methyl piperidine] was tested, and the IC50 (PCP3 sites; two-site non-linear regression) was 1.45 µM, the IC50 (PCP2 sites; two-site non-linear regression) was 0.0473 µM and the “cortex 1 site nH” value (PCP1 sites) was 1.09. It also gave an IC50 (PCP1 sites; [3]) of 0.0055 µM.
With `CC1CSCCC1(c1cccs1)N1CCCCC1` (single isomer, unassigned) [Ex 1 (majority), N-[4-(2-thienyl)-3-methyl-tetrahydro-4H-thiopyran-4-yl] piperidine] the “cortex 1 site nH” value (PCP1 sites) was 0.94 and the IC50 (PCP1 sites; [3]) was 17.2 µM.
In the case of `CC1CSCCC1(c1cccs1)N1CCCCC1` (single isomer, unassigned) [Ex 1 (minority), N-[4-(2-thienyl)-3-methyl-tetrahydro-4H-thiopyran-4-yl] piperidine], the IC50 (PCP3 sites; two-site non-linear regression) is reported as 0.0176 µM, the IC50 (PCP2 sites; two-site non-linear regression) is reported as 1.35 µM and the “cortex 1 site nH” value (PCP1 sites) is reported as 0.89. The IC50 (PCP1 sites; [3]) was 0.0268 µM.
`CC1CCCN(C2(c3cccs3)CCCCC2)C1` (single isomer, unassigned) [Ex 22 (+), N-[1-(2-thienyl)-cyclohexan-1-yl]-3-methyl piperidine] was tested, and the IC50 (PCP3 sites; two-site non-linear regression) was 0.808 µM, the IC50 (PCP2 sites; two-site non-linear regression) was 0.0283 µM and the “cortex 1 site nH” value (PCP1 sites) was 1.04. It also gave an IC50 (PCP1 sites; [3]) of 0.0052 µM.
For `CC1CCCN(C2(c3cccs3)CCCCC2)C1` (single isomer, unassigned) [Ex 22 (−), N-[1-(2-thienyl)-cyclohexan-1-yl]-3-methyl piperidine], the “cortex 1 site nH” value (PCP1 sites) was 1.08 and the IC50 (PCP1 sites; [3]) was 0.158 µM.
In the case of `C[C@@H]1CCCN(C2(c3cccs3)CCSCC2)C1` [Ex 4, R-(+)-N-[4-(2-thienyl)-tetrahydro-4H-thiopyran-4-yl]-3-methyl-piperidine], the IC50 (PCP3 sites; two-site non-linear regression) is reported as 2.08 µM, the IC50 (PCP2 sites; two-site non-linear regression) is reported as 0.0532 µM and the “cortex 1 site nH” value (PCP1 sites) is reported as 0.84. For the same compound, the IC50 (PCP1 sites; [1]) was 0.024 µM.
For `C[C@@H]1CCCN(C2(c3cc4ccccc4s3)CCSCC2)C1` [Ex 6, R-(+)-N-[4-(2-benzothiophenyl)-tetrahydro-4H-thiopyran-4-yl]-3-methyl-piperidine], the IC50 (PCP3 sites; two-site non-linear regression) was 0.28 µM, the IC50 (PCP2 sites; bound in μM) was greater than 100 µM and the IC50 (PCP1 sites; [2]) was greater than 100 µM.
For `C[C@H]1CCCN(C2(c3cc4ccccc4s3)CCSCC2)C1` [Ex 7, S-(−)-N-[4-(2-benzothiophenyl)-tetrahydro-4H-thiopyran-4-yl]-3-methyl-piperidine], the IC50 (PCP3 sites; two-site non-linear regression) was 0.639 µM, the IC50 (PCP2 sites; two-site non-linear regression) was 84 µM and the “cortex 1 site nH” value (PCP1 sites) was 0.73. For the same compound, the IC50 (PCP1 sites; [3]) was 82.8 µM.
`OCC1CCCN(C2(c3cccs3)CCCCC2)C1` (stereo not drawn) [Ex 8, N-[1-(2-thienyl)-cyclohexan-1-yl]-3-hydroxymethyl-piperidine] was tested, and the IC50 (PCP3 sites; two-site non-linear regression) was 0.0124 µM, the IC50 (PCP2 sites; two-site non-linear regression) was 2.24 µM and the “cortex 1 site nH” value (PCP1 sites) was 0.96. The IC50 (PCP1 sites; [1]) was 0.0284 µM.
`c1coc(C2(N3CCCCC3)CCSCC2)c1` [Ex 9, N-[4-(2-furyl)-tetrahydro-4H-thiopyran-4-yl]-piperidine] gave an IC50 (PCP3 sites; two-site non-linear regression) of 0.0138 µM, an inhibition at 10 µM (PCP receptors) of 96% and an IC50 (PCP2 sites; two-site non-linear regression) of 1.02 µM. The “cortex 1 site nH” value (PCP1 sites) was 0.87 and the IC50 (PCP1 sites; [1]) was 0.133 µM.
`c1ccc2oc(C3(N4CCCCC4)CCSCC3)cc2c1` [Ex 10, N-[4-(2-benzofuryl)-tetrahydro-4H-thiopyran-4-yl]-piperidine] was tested, and the IC50 (PCP3 sites; two-site non-linear regression) was 0.0591 µM, the inhibition at 10 µM (PCP receptors) was 18% and the IC50 (PCP2 sites; two-site non-linear regression) was 26.6 µM. For the same compound, the “cortex 1 site nH” value (PCP1 sites) was 0.9 and the IC50 (PCP1 sites; [1]) was 27.5 µM.
For `Cc1ccc(C2(N3CCCCC3)CCSCC2)s1` [Ex 11, N-[4-(5-methyl-thiophen-2-yl)-tetrahydro-4H-thiopyran-4-yl]-piperidine], the IC50 (PCP3 sites; bound in μM) was greater than 100 µM, the IC50 (PCP2 sites; two-site non-linear regression) was 0.532 µM and the “cortex 1 site nH” value (PCP1 sites) was 0.97. The IC50 (PCP1 sites; [1]) was 0.462 µM.
With `Cc1csc(C2(N3CCCCC3)CCSCC2)c1` [Ex 12, N-[4-(4-methyl-thiophen-2-yl)-tetrahydro-4H-thiopyran-4-yl]-piperidine] the IC50 (PCP3 sites; two-site non-linear regression) was 0.0054 µM, the IC50 (PCP2 sites; two-site non-linear regression) was 0.772 µM and the “cortex 1 site nH” value (PCP1 sites) was 0.93. It also gave an IC50 (PCP1 sites; [1]) of 0.0778 µM.
In the case of `CCNC1(c2cccs2)CCCCC1` [Ex 17, N-ethyl-1-(2-thienyl)-cyclohexylamine], the IC50 (PCP3 sites; two-site non-linear regression) is reported as 47.6 µM, the IC50 (PCP2 sites; two-site non-linear regression) is reported as 0.055 µM and the “cortex 1 site nH” value (PCP1 sites) is reported as 0.77. It also gave an IC50 (PCP1 sites; [3]) of 0.0209 µM.
With `c1coc(C2(N3CCCCC3)CCCCC2)c1` [Ex 18, N-[1-(2-furyl)-cyclohexan-1-yl] piperidine] the IC50 (PCP3 sites; two-site non-linear regression) was 0.0056 µM, the IC50 (PCP2 sites; two-site non-linear regression) was 0.187 µM and the “cortex 1 site nH” value (PCP1 sites) was 0.83. The IC50 (PCP1 sites; [1]) was 0.0078 µM.
With `c1csc(C2(N3CCCCC3)CCSCC2)c1` [Ex 19, N-[4-(2-thienyl)-tetrahydro-4H-thiopyran-4-yl] piperidine] the IC50 (PCP3 sites; two-site non-linear regression) was 0.0085 µM, the IC50 (PCP2 sites; two-site non-linear regression) was 0.586 µM and the “cortex 1 site nH” value (PCP1 sites) was 1.05. It also gave an IC50 (PCP1 sites; [1]) of 0.0716 µM.
For `c1csc(C2(N3CCCCC3)CCOCC2)c1` [Ex 20, N-[4-(2-thienyl)-tetrahydro-4H-pyran-4-yl] piperidine], the IC50 (PCP3 sites; two-site non-linear regression) was 0.035 µM, the IC50 (PCP2 sites; two-site non-linear regression) was 5.84 µM and the “cortex 1 site nH” value (PCP1 sites) was 0.98. It also gave an IC50 (PCP1 sites; [1]) of 1.22 µM.
In the case of `c1csc(C2(N3CCCCC3)CCCSC2)c1` (stereo not drawn) [Ex 21, N-[3-(2-thienyl)-tetrahydro-4H-thiopyran-3-yl] piperidine], the IC50 (PCP3 sites; two-site non-linear regression) is reported as 0.008 µM, the IC50 (PCP2 sites; two-site non-linear regression) is reported as 0.659 µM and the “cortex 1 site nH” value (PCP1 sites) is reported as 1.00. It also gave an IC50 (PCP1 sites; [1]) of 0.0734 µM.
`c1csc(C2(N3CCCCC3)CCCCC2)c1` [TCP, N-(1-(2-thienyl)cyclohexyl)piperidine, reference compound] was tested, and the IC50 (PCP3 sites; two-site non-linear regression) was 3.72 µM and the IC50 (PCP2 sites; two-site non-linear regression) was 0.059 µM.
